Experimental data reported in ChEMBL document CHEMBL4138148, “Discovery of novel pyrrolo-pyridine/pyrimidine derivatives bearing pyridazinone moiety as c-Met kinase inhibitors” (Eur J Med Chem, 2017).
Activity calls are given as the source filed them. The rule behind the calls is not given here.

How the values were obtained:
A549 [1] = assay: cells; settings: Homo sapiens, A549, 72 h
Description: (§1) Cytotoxicity against human A549 cells assessed as reduction in cell viability after 72 hrs by MTT assay

HepG2 [2] = assay: cells; settings: Homo sapiens, HepG2, 72 h
Description: (§2) Cytotoxicity against human HepG2 cells assessed as reduction in cell viability after 72 hrs by MTT assay

MCF7 [3] = assay: cells; settings: Homo sapiens, MCF7, 72 h
Description: (§3) Cytotoxicity against human MCF7 cells assessed as reduction in cell viability after 72 hrs by MTT assay

PC-3 [4] = assay: cells; settings: Homo sapiens, PC-3, 72 h
Description: (§4) Cytotoxicity against human PC3 cells assessed as reduction in cell viability after 72 hrs by MTT assay

[5] = target: Hepatocyte growth factor receptor (Homo sapiens, UniProt P08581); assay: Inhibition of c-MET (unknown origin) using FAM-labeled peptide as substrate preincubated for 10 mins followed by substrate addition by mobility shift assay
HepG2 [6] = assay: Induction of apoptosis in human HepG2 cells assessed as viable cells at 2.8 uM by Annexin V-FITC/propidium iodide staining based flow cytometry (reference value: 87.54%); assay type: functional; settings: read-out: Activity
HepG2 [7] = assay: Induction of apoptosis in human HepG2 cells assessed as late apoptotic cells at 2.8 uM by Annexin V-FITC/propidium iodide staining based flow cytometry (reference value: 6.07%); assay type: functional
HepG2 [8] = assay: Induction of apoptosis in human HepG2 cells assessed as necrotic cells at 2.8 uM by Annexin V-FITC/propidium iodide staining based flow cytometry (reference value: 0.28%); assay type: functional
HepG2 [9] = assay: Induction of apoptosis in human HepG2 cells assessed as early apoptotic cells at 2.8 uM by Annexin V-FITC/propidium iodide staining based flow cytometry (reference value: 6.11%); assay type: functional
A549 [10] = settings: Homo sapiens
Description: as §1

HepG2 [11] = assay: Induction of apoptosis in human HepG2 cells assessed as formation of DNA fragments at 1.3 uM by acridine orange dye based inverted fluorescence microscopy; assay type: functional, cell-based
MCF7 [12] = settings: Homo sapiens
Description: as §3

[13] = target: T1, Receptor-type tyrosine-protein kinase FLT3 (Homo sapiens, UniProt P36888); assay: Inhibition of FLT3 (unknown origin) using FAM-labeled peptide as substrate preincubated for 10 mins followed by substrate addition by mobility shift assay
T1 sequence (P36888 whole entry): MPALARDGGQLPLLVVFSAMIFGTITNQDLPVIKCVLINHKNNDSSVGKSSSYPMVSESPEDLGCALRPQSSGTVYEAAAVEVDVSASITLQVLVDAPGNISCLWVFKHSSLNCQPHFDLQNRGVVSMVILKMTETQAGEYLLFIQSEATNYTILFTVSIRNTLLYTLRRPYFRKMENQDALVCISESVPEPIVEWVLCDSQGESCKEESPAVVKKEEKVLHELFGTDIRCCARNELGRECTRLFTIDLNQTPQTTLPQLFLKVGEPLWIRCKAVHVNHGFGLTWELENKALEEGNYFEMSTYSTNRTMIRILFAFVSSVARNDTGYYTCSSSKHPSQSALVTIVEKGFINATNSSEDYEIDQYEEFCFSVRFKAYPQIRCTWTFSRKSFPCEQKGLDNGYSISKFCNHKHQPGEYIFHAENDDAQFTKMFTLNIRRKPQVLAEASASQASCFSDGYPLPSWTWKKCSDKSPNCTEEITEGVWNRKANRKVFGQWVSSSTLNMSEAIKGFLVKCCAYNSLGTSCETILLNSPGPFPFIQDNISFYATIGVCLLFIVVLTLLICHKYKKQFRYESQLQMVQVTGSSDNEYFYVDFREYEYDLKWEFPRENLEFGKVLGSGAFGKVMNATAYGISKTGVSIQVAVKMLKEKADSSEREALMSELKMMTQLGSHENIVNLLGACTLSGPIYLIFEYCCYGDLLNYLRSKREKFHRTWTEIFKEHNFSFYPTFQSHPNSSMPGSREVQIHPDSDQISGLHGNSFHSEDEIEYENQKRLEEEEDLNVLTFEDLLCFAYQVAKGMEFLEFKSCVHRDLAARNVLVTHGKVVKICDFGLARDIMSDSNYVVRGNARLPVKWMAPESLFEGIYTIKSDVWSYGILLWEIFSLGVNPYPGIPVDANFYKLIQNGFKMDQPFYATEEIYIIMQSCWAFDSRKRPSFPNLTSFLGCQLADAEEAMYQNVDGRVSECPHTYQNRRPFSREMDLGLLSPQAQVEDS

HepG2 [14] = assay: Induction of apoptosis in human HepG2 cells assessed as early apoptotic cells at 1.3 uM by Annexin V-FITC/propidium iodide staining based flow cytometry (reference value: 6.11%); assay type: functional
PC-3 [15] = settings: Homo sapiens
Description: as §4

[16] = target: Epidermal growth factor receptor (Homo sapiens, UniProt P00533); assay: Inhibition of EGFR (unknown origin) using FAM-labeled peptide as substrate preincubated for 10 mins followed by substrate addition by mobility shift assay
[17] = target: Mast/stem cell growth factor receptor Kit (Homo sapiens, UniProt P10721); assay: Inhibition of cKIT (unknown origin) using FAM-labeled peptide as substrate preincubated for 10 mins followed by substrate addition by mobility shift assay
[18] = target: Vascular endothelial growth factor receptor 2 (Homo sapiens, UniProt P35968); assay: Inhibition of VEGFR2 (unknown origin) using FAM-labeled peptide as substrate preincubated for 10 mins followed by substrate addition by mobility shift assay
HepG2 [19] = assay: Induction of apoptosis in human HepG2 cells assessed as formation of cell shrinkage at 1.3 uM by acridine orange dye based inverted fluorescence microscopy; assay type: functional
HepG2 [20] = assay: Induction of apoptosis in human HepG2 cells assessed as viable cells at 1.3 uM by Annexin V-FITC/propidium iodide staining based flow cytometry (reference value: 87.54%); assay type: functional; settings: read-out: Activity
HepG2 [21] = assay: Induction of apoptosis in human HepG2 cells assessed as formation of chromatin condensation at 1.3 uM by acridine orange dye based inverted fluorescence microscopy; assay type: functional, cell-based
HepG2 [22] = assay: Induction of apoptosis in human HepG2 cells assessed as necrotic cells at 1.3 uM by Annexin V-FITC/propidium iodide staining based flow cytometry (reference value: 0.28%); assay type: functional
HepG2 [23] = settings: Homo sapiens
Description: as §2

HepG2 [24] = assay: Induction of apoptosis in human HepG2 cells assessed as late apoptotic cells at 1.3 uM by Annexin V-FITC/propidium iodide staining based flow cytometry (reference value: 6.07%); assay type: functional

Sequence of Hepatocyte growth factor receptor (P08581 whole entry): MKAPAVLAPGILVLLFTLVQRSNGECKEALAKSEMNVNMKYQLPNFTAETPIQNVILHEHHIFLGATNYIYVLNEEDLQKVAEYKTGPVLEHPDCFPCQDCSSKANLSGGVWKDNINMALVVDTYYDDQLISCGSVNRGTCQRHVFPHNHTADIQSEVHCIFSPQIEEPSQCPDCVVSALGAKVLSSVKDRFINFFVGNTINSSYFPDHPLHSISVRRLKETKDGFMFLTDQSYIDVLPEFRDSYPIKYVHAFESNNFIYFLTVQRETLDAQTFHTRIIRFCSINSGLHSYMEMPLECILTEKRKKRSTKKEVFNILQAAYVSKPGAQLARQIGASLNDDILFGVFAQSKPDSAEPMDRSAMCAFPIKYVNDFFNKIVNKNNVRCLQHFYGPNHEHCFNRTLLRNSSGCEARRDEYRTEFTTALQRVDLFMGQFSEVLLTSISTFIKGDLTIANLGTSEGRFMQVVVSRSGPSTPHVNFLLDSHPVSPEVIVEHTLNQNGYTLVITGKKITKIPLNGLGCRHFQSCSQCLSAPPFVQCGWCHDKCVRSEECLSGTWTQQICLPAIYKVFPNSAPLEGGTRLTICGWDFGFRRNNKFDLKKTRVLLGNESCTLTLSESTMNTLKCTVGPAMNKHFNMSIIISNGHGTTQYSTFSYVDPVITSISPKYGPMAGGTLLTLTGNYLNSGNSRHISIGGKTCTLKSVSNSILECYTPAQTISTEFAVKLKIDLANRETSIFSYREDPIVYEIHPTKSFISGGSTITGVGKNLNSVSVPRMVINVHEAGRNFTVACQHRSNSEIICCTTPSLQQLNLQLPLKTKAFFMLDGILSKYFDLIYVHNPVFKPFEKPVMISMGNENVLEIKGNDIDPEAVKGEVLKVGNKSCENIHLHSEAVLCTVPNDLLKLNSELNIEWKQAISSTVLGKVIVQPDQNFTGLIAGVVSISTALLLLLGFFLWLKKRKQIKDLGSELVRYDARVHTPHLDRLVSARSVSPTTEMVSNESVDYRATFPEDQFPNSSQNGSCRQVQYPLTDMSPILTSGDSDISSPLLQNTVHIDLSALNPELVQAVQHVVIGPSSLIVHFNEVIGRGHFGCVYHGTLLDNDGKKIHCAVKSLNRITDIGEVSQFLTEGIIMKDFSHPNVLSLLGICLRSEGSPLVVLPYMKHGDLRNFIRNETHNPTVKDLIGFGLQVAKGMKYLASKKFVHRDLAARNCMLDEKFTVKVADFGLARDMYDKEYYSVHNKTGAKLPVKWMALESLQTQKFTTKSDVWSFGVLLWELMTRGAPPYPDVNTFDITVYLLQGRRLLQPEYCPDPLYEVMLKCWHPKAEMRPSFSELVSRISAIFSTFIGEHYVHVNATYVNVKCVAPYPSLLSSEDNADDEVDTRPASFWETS
Sequence of Mast/stem cell growth factor receptor Kit (P10721 whole entry): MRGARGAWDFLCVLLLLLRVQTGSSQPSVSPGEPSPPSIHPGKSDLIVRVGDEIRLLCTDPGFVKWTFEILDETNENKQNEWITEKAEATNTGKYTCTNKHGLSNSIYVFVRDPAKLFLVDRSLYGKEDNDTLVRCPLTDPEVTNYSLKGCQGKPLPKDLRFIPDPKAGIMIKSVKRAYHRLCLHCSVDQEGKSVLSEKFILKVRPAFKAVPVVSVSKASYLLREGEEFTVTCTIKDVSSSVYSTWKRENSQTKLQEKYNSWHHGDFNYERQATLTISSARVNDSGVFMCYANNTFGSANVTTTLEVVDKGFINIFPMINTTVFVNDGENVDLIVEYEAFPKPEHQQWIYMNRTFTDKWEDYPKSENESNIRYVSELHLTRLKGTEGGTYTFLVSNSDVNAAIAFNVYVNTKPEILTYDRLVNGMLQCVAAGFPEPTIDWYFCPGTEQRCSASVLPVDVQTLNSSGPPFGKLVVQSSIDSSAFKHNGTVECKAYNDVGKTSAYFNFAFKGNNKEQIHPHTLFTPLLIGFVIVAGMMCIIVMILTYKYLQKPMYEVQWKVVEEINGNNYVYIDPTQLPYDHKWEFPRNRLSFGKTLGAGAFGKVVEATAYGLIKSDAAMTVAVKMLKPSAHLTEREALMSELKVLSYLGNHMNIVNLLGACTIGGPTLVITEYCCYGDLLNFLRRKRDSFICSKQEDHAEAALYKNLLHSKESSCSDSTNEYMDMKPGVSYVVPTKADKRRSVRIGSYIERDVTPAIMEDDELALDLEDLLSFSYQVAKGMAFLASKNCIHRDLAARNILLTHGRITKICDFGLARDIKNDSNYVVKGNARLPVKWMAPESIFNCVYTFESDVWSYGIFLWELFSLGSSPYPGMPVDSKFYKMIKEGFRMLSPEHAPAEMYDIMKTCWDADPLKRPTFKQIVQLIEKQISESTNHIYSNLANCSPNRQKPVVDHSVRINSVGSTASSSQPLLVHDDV
Sequence of Vascular endothelial growth factor receptor 2 (P35968 whole entry): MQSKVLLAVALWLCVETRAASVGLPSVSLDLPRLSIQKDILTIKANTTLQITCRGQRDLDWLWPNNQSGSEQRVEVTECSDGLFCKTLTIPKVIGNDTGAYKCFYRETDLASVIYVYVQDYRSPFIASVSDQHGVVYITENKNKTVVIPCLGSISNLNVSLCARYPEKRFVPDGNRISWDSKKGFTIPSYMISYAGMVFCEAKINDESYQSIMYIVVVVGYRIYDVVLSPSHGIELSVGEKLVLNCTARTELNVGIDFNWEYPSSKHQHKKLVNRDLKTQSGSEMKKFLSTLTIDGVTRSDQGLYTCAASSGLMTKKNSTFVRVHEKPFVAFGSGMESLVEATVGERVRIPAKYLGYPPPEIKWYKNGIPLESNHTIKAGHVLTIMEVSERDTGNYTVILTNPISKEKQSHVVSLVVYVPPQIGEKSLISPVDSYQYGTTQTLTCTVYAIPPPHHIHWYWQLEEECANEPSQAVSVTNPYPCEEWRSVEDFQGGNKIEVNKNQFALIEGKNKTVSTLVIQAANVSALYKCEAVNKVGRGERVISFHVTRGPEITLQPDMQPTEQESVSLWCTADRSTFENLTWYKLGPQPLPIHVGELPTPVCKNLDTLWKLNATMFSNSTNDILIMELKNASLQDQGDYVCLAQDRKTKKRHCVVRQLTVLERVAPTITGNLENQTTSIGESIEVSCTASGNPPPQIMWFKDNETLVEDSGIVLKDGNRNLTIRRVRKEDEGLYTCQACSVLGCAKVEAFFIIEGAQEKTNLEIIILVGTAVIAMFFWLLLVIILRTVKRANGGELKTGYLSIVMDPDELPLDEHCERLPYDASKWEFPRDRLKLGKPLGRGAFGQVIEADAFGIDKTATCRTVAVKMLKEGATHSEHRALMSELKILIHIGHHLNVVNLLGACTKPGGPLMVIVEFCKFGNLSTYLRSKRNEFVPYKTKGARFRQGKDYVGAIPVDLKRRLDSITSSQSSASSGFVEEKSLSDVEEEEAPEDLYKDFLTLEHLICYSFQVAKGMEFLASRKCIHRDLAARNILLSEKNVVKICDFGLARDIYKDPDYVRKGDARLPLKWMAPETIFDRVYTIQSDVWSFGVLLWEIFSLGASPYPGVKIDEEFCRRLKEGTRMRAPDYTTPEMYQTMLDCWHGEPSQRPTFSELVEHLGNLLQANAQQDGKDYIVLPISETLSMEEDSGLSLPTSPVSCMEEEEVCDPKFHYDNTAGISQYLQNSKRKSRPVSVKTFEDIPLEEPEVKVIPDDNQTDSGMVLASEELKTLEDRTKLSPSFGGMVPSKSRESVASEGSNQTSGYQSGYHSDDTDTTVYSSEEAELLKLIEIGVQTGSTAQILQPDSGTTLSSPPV
Sequence of Epidermal growth factor receptor (P00533 whole entry): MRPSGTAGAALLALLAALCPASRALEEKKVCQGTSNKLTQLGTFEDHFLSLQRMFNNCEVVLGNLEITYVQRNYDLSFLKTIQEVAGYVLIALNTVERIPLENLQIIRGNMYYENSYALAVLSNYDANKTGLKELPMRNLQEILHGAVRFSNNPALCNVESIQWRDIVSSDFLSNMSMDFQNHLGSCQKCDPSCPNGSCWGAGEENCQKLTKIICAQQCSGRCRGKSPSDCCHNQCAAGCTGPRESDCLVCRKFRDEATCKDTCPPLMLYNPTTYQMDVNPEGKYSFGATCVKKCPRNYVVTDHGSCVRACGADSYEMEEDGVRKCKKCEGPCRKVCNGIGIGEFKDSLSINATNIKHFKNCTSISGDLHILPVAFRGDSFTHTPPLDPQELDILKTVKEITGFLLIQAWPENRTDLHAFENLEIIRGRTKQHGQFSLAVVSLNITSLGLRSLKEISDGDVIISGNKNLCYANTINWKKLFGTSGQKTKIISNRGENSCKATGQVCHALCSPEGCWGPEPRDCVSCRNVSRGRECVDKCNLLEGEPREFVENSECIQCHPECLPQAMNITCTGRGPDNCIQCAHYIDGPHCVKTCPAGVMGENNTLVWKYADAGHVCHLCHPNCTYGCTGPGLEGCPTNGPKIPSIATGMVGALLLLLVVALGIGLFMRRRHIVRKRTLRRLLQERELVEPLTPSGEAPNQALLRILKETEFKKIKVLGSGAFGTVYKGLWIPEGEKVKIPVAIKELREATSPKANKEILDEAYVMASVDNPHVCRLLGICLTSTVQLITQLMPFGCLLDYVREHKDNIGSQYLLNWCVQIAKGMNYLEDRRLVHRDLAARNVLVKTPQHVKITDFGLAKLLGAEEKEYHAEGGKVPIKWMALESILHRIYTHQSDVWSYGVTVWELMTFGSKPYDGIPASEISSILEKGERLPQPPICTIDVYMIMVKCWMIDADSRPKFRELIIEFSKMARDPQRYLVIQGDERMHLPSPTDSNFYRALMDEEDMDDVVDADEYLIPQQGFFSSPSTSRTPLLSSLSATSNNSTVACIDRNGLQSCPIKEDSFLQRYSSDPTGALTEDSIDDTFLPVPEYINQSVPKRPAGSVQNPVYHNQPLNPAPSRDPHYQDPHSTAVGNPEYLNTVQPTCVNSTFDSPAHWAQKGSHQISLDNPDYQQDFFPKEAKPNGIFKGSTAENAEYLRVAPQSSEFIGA

SMILES	IC50 (A549 [1]) [µM]	IC50 (HepG2 [2]) [µM]	IC50 (MCF7 [3]) [µM]	IC50 (PC-3 [4]) [µM]	other results
O=C(Nc1ccc(Oc2ccnc3[nH]ccc23)cc1)c1nn(-c2ccc(Cl)c(F)c2)ccc1=O	2.58	5.24	3.11	7.78	IC50 [5]: 0.17 µM
COc1cc2c(Oc3ccc(NC(=O)C4(C(=O)Nc5ccc(F)cc5)CC4)cc3F)ccnc2cc1OCCCN1CCOCC1 [FORETINIB]	–	–	–	–	viability at 2.8 µM (HepG2 [6]): 72.4%; Activity (HepG2 [7]): 10.3%; Activity (HepG2 [8]): 1.25%; Activity (HepG2 [9]): 16.09%
O=C(Nc1ccc(Oc2ccnc3[nH]ccc23)cc1)c1nn(-c2ccc(Cl)c(C(F)(F)F)c2)ccc1=O	2.19	1.32	6.27	4.63	Activity (A549 [10]): Dose-dependent effect; Activity (HepG2 [11]): Active; Activity (MCF7 [12]): Dose-dependent effect; IC50 [13]: 0.77 µM; Activity (HepG2 [14]): 23.01%; Activity (PC-3 [15]): Dose-dependent effect; IC50 [16]: > 10 µM; IC50 [17]: 2.2 µM; IC50 [18]: 2.4 µM; Activity (HepG2 [19]): Active; IC50 [5]: 0.073 µM; viability at 1.3 µM (HepG2 [20]): 62.8%; Activity (HepG2 [21]): Active; Activity (HepG2 [22]): 2.31%; Activity (HepG2 [23]): Dose-dependent effect; Activity (HepG2 [24]): 11.89%
Cn1ccc2c(Oc3ccc(NC(=O)c4nn(-c5ccc(Cl)c(F)c5)ccc4=O)cc3F)ccnc21	> 60	22.1	16.6	17.9	–
Cc1cc(=O)n(-c2ccc(Br)cc2F)nc1C(=O)Nc1ccc(Oc2ncnc3c2ccn3C)c(F)c1	14.4	> 60	> 60	6.67	–
Cc1cc(=O)n(-c2ccc(Br)cc2F)nc1C(=O)Nc1ccc(Oc2ncnc3c2ccn3C)cc1	47.3	33.6	27.7	18.8	–
Cn1ccc2c(Oc3ccc(NC(=O)c4nn(-c5ccc(Br)cc5)ccc4=O)cc3F)ccnc21	> 60	> 60	33.6	> 60	–
Cn1ccc2c(Oc3ccc(NC(=O)c4nn(-c5ccc(Cl)cc5)ccc4=O)cc3)ccnc21	> 60	> 60	> 60	> 60	–
O=C(Nc1ccc(Oc2ccnc3[nH]ccc23)c(F)c1)c1nn(-c2ccccc2)ccc1=O	56.8	24.9	34.9	38.6	–

Continued, in another order:

IC50 (A549 [1]) [µM]	IC50 (HepG2 [2]) [µM]	IC50 (MCF7 [3]) [µM]	IC50 (PC-3 [4]) [µM]	SMILES	other results
6.4	7.46	3.62	9.61	Cc1ccc(-n2nc(C(=O)Nc3ccc(Oc4ncnc5[nH]ccc45)cc3)c(C)cc2=O)cc1	IC50 [5]: 27 µM
3.77	3.66	3.21	2.73	Cc1cc(=O)n(-c2ccc(Br)cc2F)nc1C(=O)Nc1ccc(Oc2ncnc3[nH]ccc23)cc1	IC50 [5]: 20.7 µM
> 60	> 60	> 60	> 60	Cc1cc(=O)n(-c2ccccc2OC(F)(F)F)nc1C(=O)Nc1ccc(Oc2ncnc3c2ccn3C)c(F)c1	–
> 60	> 60	4.8	> 60	Cc1cc(=O)n(-c2ccc(F)cc2)nc1C(=O)Nc1ccc(Oc2ncnc3[nH]ccc23)cc1	–
31.4	23.1	32	6.68	Cc1cc(=O)n(-c2cccc(F)c2)nc1C(=O)Nc1ccc(Oc2ncnc3[nH]ccc23)c(F)c1	–
16.2	22.8	32	22.5	Cc1cc(=O)n(-c2ccccc2OC(F)(F)F)nc1C(=O)Nc1ccc(Oc2ncnc3[nH]ccc23)cc1	–
